The text below walks through data of PubChem BioAssay (NCI).

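Step 1: Grow cells in 96-well plates. Step 2: Expose to compound for 48 hours at 5 concentrations. Step 3: Interpolate endpoints linearly; if unreached, use highest concentration. Abbreviation: GI50, concentration required for 50% inhibition of growth. TGI is the concentration that stops growth completely.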 Where only a bound is given, the exact number is not on record here.

Among the test systems are A498 renal; HCC-2998 colon; NCI-H23 lung; NCI-H522 lung; OVCAR-8 ovarian; PC-3 prostate; SF-539 CNS; SW-620 colon; UO-31 renal; HT29 colon.
What all share (experiment): NCI-60 cell line screen, 48 h

Consider `COc1cc(CNC(=O)CCSc2nc3ccccc3c(=O)n2Cc2cc(OC)c(OC)c(OC)c2)cc(OC)c1OC`, for which the GI50 in the experiment on A498 renal was 4.05 µM; in the experiment on HCC-2998 colon, 13 µM; in the experiment on NCI-H23 lung it was 6.87 µM; in the experiment on NCI-H522 lung, 6.55 µM; in the experiment with OVCAR-8 ovarian it was 10 µM; in the experiment on PC-3 prostate, 10.8 µM. In addition, the GI50 was 2.86 µM in the experiment on SF-539 CNS, 4.31 µM in the experiment with SW-620 colon and 5.9 µM in the experiment with UO-31 renal. The TGI is 21.1 µM with A498 renal; 94.6 µM in the experiment with HCC-2998 colon; more than 100 µM with NCI-H23 lung; 27.5 µM in the experiment on NCI-H522 lung; 50.7 µM in the experiment on OVCAR-8 ovarian; more than 100 µM in the experiment with PC-3 prostate. Further, the values for the TGI in the experiment with SF-539 CNS, in the experiment on SW-620 colon and with UO-31 renal were 10.7 µM, more than 100 µM and more than 100 µM, respectively.
For the compound `Cc1cc(Cl)ccc1NC(=O)NC(C)(C)COC(=O)Nc1cccc(Cl)c1`, the GI50 in the experiment with A498 renal is 2.82 µM; in the experiment on HCC-2998 colon, 11.3 µM; with HT29 colon it was 7.42 µM; with NCI-H23 lung, 3.66 µM; in the experiment on OVCAR-8 ovarian it was 5.42 µM; in the experiment on PC-3 prostate, 3.66 µM. In addition, the GI50 in the experiment with SF-539 CNS is 9.4 µM; with SW-620 colon, 7.45 µM; in the experiment with UO-31 renal it was 7.11 µM. In addition, the TGI in the experiment with A498 renal was 21.8 µM; in the experiment with HCC-2998 colon, more than 100 µM; in the experiment with HT29 colon, 39.4 µM; in the experiment with NCI-H23 lung, 28.4 µM; with OVCAR-8 ovarian, 64.8 µM; in the experiment with PC-3 prostate, 52.1 µM. For the same compound, the TGI was more than 100 µM in the experiment with SF-539 CNS, more than 100 µM in the experiment with SW-620 colon and 80.7 µM with UO-31 renal.
`Cn1c(O)c(N=NC(N)=S)c2ccccc21`: the GI50 was 97.7 µM with A498 renal; more than 100 µM with HCC-2998 colon; more than 100 µM in the experiment with HT29 colon; more than 100 µM with NCI-H23 lung; 43.9 µM with NCI-H522 lung; 54.8 µM with OVCAR-8 ovarian. In addition, the GI50 in the experiment with PC-3 prostate is 79.9 µM; with SF-539 CNS, more than 100 µM; in the experiment with SW-620 colon, 54.6 µM. The TGI in the experiment on A498 renal, in the experiment with HCC-2998 colon, in the experiment with HT29 colon, in the experiment on NCI-H23 lung, in the experiment with NCI-H522 lung and in the experiment with OVCAR-8 ovarian was more than 100 µM throughout. Also, the TGI in the experiment with PC-3 prostate, with SF-539 CNS and in the experiment with SW-620 colon was more than 100 µM in each case.
Regarding `O=C(c1ccccc1)c1ccccc1C(=O)c1ccccc1`, the GI50 is 4.34 µM in the experiment with A498 renal; 32.3 µM with HCC-2998 colon; 45.3 µM with HT29 colon; 34 µM with NCI-H23 lung; 34.5 µM in the experiment with OVCAR-8 ovarian; 37.7 µM in the experiment on PC-3 prostate. For the same compound, the values for the GI50 with SF-539 CNS and with SW-620 colon were 77.5 µM and 55.8 µM, respectively. For the same compound, the TGI is more than 100 µM in the experiment with A498 renal; 85.3 µM in the experiment with HCC-2998 colon; more than 100 µM in the experiment with HT29 colon; more than 100 µM in the experiment with NCI-H23 lung; more than 100 µM in the experiment on OVCAR-8 ovarian; more than 100 µM in the experiment on PC-3 prostate. Also, the TGI in the experiment on SF-539 CNS and in the experiment with SW-620 colon was more than 100 µM in each case.
As to `O=C1NC(O)CCN1C1CC(O)C(CO)O1` (configuration not stated), the TGI with A498 renal, with HCC-2998 colon, in the experiment on NCI-H23 lung, in the experiment with NCI-H522 lung, with OVCAR-8 ovarian and in the experiment on PC-3 prostate was more than 100 µM in each case. Moreover, the TGI with SF-539 CNS, with SW-620 colon and in the experiment with UO-31 renal was more than 100 µM each time.
Consider `S=c1[nH]nc(SCc2ccccc2Cl)c2[nH]cnc12`, for which the TGI in the experiment on A498 renal, in the experiment with HT29 colon, in the experiment with NCI-H23 lung, with NCI-H522 lung, with OVCAR-8 ovarian and in the experiment with PC-3 prostate was more than 100 µM each time. The TGI in the experiment on SF-539 CNS, with SW-620 colon and with UO-31 renal was more than 100 µM in each case.
As to `COc1cc(/C=C/c2cc(/C=C/c3ccc(O)c(OC)c3)[nH]c(=O)n2)ccc1O`, the GI50 in the experiment on A498 renal is 3.11 µM; in the experiment on HCC-2998 colon, 3.55 µM; in the experiment with HT29 colon, 1.3 µM; with NCI-H522 lung, 2.57 µM; in the experiment with OVCAR-8 ovarian, 3.01 µM; in the experiment on PC-3 prostate, 3.2 µM. The GI50 in the experiment on SF-539 CNS is 3.87 µM; in the experiment with SW-620 colon, 3.17 µM; in the experiment with UO-31 renal, 3.71 µM. The TGI in the experiment on A498 renal came to 25.2 µM; in the experiment with HCC-2998 colon, 14.3 µM; in the experiment on HT29 colon, 2.67 µM; in the experiment with NCI-H522 lung, 7.95 µM; in the experiment on OVCAR-8 ovarian it was 12.7 µM; with PC-3 prostate, 18.6 µM. Also, the TGI is more than 100 µM in the experiment with SF-539 CNS, 16.6 µM in the experiment on SW-620 colon and 58.6 µM in the experiment with UO-31 renal.
In the case of `CC(=O)O[C@H](C[C@H](C(C)C)N(C)C(=O)[C@@H](NC(=O)[C@H]1CCCCN1C)C(C)(C)C)c1nc(C(=O)N[C@@H](Cc2ccccc2)C[C@H](C)C(=O)O)cs1`, the GI50 in the experiment on HCC-2998 colon, with HT29 colon, with NCI-H23 lung, in the experiment on NCI-H522 lung, with OVCAR-8 ovarian and in the experiment on PC-3 prostate was less than 0.0025 µM each time. Also, the GI50 in the experiment with SF-539 CNS was less than 0.0025 µM; in the experiment with SW-620 colon, less than 0.0025 µM; in the experiment on UO-31 renal, 0.0192 µM. Further, the TGI is more than 8.5 µM in the experiment with HCC-2998 colon; more than 25 µM in the experiment on HT29 colon; more than 25 µM in the experiment with NCI-H23 lung; 0.00847 µM in the experiment on NCI-H522 lung; more than 25 µM with OVCAR-8 ovarian; more than 25 µM with PC-3 prostate. Moreover, the results for the TGI in the experiment with SF-539 CNS, with SW-620 colon and in the experiment with UO-31 renal were 0.0046 µM, more than 25 µM and more than 25 µM, respectively.
With `COc1cc(CC2CC(c3ccc4c(c3)OCO4)OC2=O)cc(OC)c1OC` (configuration not stated), the TGI with A498 renal, with HCC-2998 colon, in the experiment with HT29 colon, in the experiment with NCI-H23 lung, with OVCAR-8 ovarian and in the experiment on PC-3 prostate was more than 100 µM in each case. The TGI with SF-539 CNS is more than 100 µM; in the experiment with SW-620 colon, more than 100 µM; in the experiment with UO-31 renal it was 82.4 µM.
For `CC(C)N(Cc1ccccc1)S(=O)(=O)c1n[nH]c(C(C)(C)C)n1`, the TGI with A498 renal, in the experiment on HT29 colon, with NCI-H23 lung, in the experiment with NCI-H522 lung, in the experiment with OVCAR-8 ovarian and in the experiment with PC-3 prostate was more than 100 µM in each case. Besides, the TGI in the experiment with SF-539 CNS, in the experiment with SW-620 colon and in the experiment with UO-31 renal was more than 100 µM throughout.
